Tests used:
Assay type in all cases: cell-based
[1] = test system: U87 cells; assay: ROS detection by dihydroethidium; conditions: day three
Experimental: ROS detection in U87 cells was performed using 2′,7′-dichlorofluorescin diacetate (Sigma™, D883). Cells were treated with control and siC9 siRNA. After 3 days, cells were washed with phenol red-free DMEM (ThermoFisher™, 21063029). Cells then were incubated with 20 μM DCFDA for 40 minutes at 37° C. Cells then were washed with phenol red-free DMEM. Then signal was read at Ex/Em: 485/535 nm using Synergy H1 Hybrid™ Multi-Mode Microplate reader by Biotek™. Quantitation was done after removal of background. Additionally, dihydroethidium (EMD Millipore™ 309800) was used. U87 cells were treated as described above. At day 3, cells were incubated with DHE for 30 minutes at 37° C. […]
For the above reasons, whether C9 KD may lead to increase ROS production was investigated. […] C9 was knocked down in U87 cells with two independent siRNAs and the ROS levels were measured after KD. […]
For the data presented in FIG. 21, U87 cells were treated with control (siCtrl) and C9 (siC9; SEQ ID NO:631) siRNA and on day three ROS levels measured by DCFDA and dihydroethidium. FIG. 21A presents data for fluorescent intensity between control (siCtrl) and C9 KD (siC9) cells as measured by DCFDA. […] FIG. 21C presents fluorescent intensity quantitation for about 30 cells from the dihydroethidium experiments (n=3). Statistical significance was assessed by an unpaired t-test: NS P>0.05, *P≤0.05, **P≤0.01, ***P≤0.001 ****P≤0.0001. […]

[2] = test system: U87 cells; assay: Dextran measurement of macropinocytosis; conditions: fluorescein dextran
Experimental: U87 cells were treated with control and C9 siRNA for a total of 3 days. At day 2, cells were treated with a final concentration of 20 μM dextran and incubased overnight. On day 3, cells were washed with phenol red-free DMEM and then imaged using excitation/emission for fluorescein (494/521) on an LSM 700; Carl Zeiss™ microscope.
In this study, a fluid phase marker, fluorescein dextran, was added to the media. If the vacuoles are macropinosomes, the marker will be taken up and internalized, resulting in green fluorescent macropinocytosis.
The right images are a merge between the left and middle images. The scale bar represents 10 μm. White arrows indicate the position of vacuoles. In FIG. 8, the upper panels are fluorescent images (Alexa™ 488) of U87 cells treated with control (siCtrl) and C9 (siC9; SEQ ID NO:631) siRNA as indicated incubated in fluorescein dextran (green). The lower panels are the same cells imaged in phase contrast.

[3] = test system: HCC1937 cells (with BRCA1 mutation); assay: CellTiter-Glo viability assay in HCC1937 cells
Experimental: […] (HCC1937, with BRCA1 mutation) cells were harvested using trypsin (0.5 ml per well) and the media was saved from each well. The saved media were resuspended with the trypsinised cells and 2-3 aliquots (0.05 ml each) of this suspension was transferred to 96-well plates. HCC cells were subjected to S1 and S2 as described above. A CellTiter-Glo™ Luminescent Viability assay was used to measure the viability of these aliquots by adding 0.15 mL of the CTG-media mixture to each well. The rest of the culture was used to extract protein. Viability of cells was measured using the 1:1 dilution of the CellTiter-Glo™ Luminescent reagent (Promega™) with media, which was read on a Victor 5™ plate reader after 10 minutes of shaking at room temperature. The intensity of luminescence was normalized to that of the DMSO control.
Without being bound to any particular theory, it is believed that this is because PARP1 is inhibited which is known to cause death in BRCA1 deficient breast cancer cell lines.

[4] = test system: U87 cells; assay: ptfLC3 fluorescent autophagy marker imaging; conditions: U87 cells transfected with ptfLC3
Experimental: Cells were plated on coverslips in 60-mm culture dishes, and after 48 hours washed twice with PBS followed by incubation with 4% paraformaldehyde (Sigma™) for 20 minutes. Cells then were washed three times with PBS, incubated with PBS/0.5% Triton™ X-100 for 1½ minutes, washed once with PBS and then blocked with 0.5% bovine serum albumin (Sigma™) in PBS for 30 minutes at room temperature before treatment with 100 μL of the diluted primary antibodies (1:1000) for 1 hour at room temperature. The coverslips were then washed three times with PBS and stained by incubation with 100 μL of diluted (1:100) secondary antibody (1:100). The coverslips were then washed three times with PBS and mounted on coverslips with a mounting media containing DAPI stain (Vectashield™, H-1200). Coverslips were imaged at room temperature (about 22° C.) using 40×, 1.3 NA or 63×, 1.4 NA oil immersion lenses on a confocal microscope (LSM 700; Carl Zeiss™).
To this end, C9 was knocked down in U87 cells and employed a fluorescent autophagy marker ptfLC3 to mark autophagosomes and autophagolysosomes. […] The white arrows show vacuoles and the white box represents a zoom in of the cell area with vacuoles. […] The white box here represents a zoom in of the cell area with vacuoles, nuclei stained with DAPI (blue). FIG. 4B is a WB showing LAMP1 levels after control (siCtrl) and C9 KD (siC9; SEQ ID NO:631).

[5] = test system: EGF mRNA; assay: qRT-PCR of EGF mRNA; conditions: U87 cells
Experimental: For most RNA experiments, RNA was isolated from cells using the Qiagen™ RNeasy minikit. Complementary DNA was generated using the Qiagen™ Quantitect™ reverse transcription kit with 0.5 μg of input RNA as measured with a NanoDrop spectrophotometer (Thermo Scientific™). Real-time PCR was carried out on an ABI StepOne Plus™ machine using power SYBR Green dye (Thermo Scientific™). Transcript levels were assayed in triplicate and normalized to RPL32 and HPS90 mRNAs. Relative changes in cDNA levels were calculated using the comparative Ct method (ΔΔCT method). All RT-qPCR primers were designed with Primer3Plus™ or retrieved from Primerbank™. Primer sequences are listed here, including in Table 3. All primers were purchased from Life Technologies™. H. Generation of p53 Knock Out U87 Cell Lines by CRISPR
How C9 levels affect EGF signaling was investigated. […] Furthermore, after 48 and 72 hours, the reduction of EGF mRNA levels was about 97%. See FIG. 39, which presents data from qRT-PCR analysis, showing mRNA levels of C9ORF72 and EGF in U87 cells treated with control or C9 siRNA for 24, 48 and 72 hours (represented as fold change). Statistical significance was assessed by an unpaired t-test: NS P>0.05, *P≤0.05, **P≤0.01, ***P≤0.001 ****P 0.0001.

siC9: siRNA targeting C9 mRNA: UUAAUGAAACAAUAAUCACUC (SEQ ID NO:631; sense) and GUGAUUAUUGUUUCAUUAAUC (SEQ ID NO:632; antisense) (listed as RNA, chemistry not given here)
ROS (dihydroethidium) [1]: significant upregulation of ROS
dextran in vacuoles [2]: formation of vacuoles filled with dextran
cell viability [3]: decrease in their viability
LC3 staining of vacuoles [4]: not stained by LC3
fluorescence of autophagolysosomes [4]: increase fluorescence
reduction of EGF mRNA levels ([5]; 24 hours after C9 KD): 50%
reduction of EGF mRNA levels ([5]; 48 hours): about 97%
reduction of EGF mRNA levels ([5]; 72 hours): about 97%

From patent US20210108199A1, “Treatment for aggressive cancers by targeting C9ORF72” (The Trustees of Columbia University in the City of New York, priority 2017, published 2021)
